Source: patent publication US9359378B2, “Substituted oxazolo[3,4-a]pyrazines as pharmaceutcals” (BIOLAB SANUS FARMACÊUTICA LTDA., priority 2014, dated 2016)

Biological target: T1, PDE6 (Bos taurus, UniProt P11541+P23439)
T1 construct: using an enzyme isolated from Cerep bovine retina; tissue Cerep; host or cells: bovine retina
T1 sequence (P11541 2-856 limits assumed): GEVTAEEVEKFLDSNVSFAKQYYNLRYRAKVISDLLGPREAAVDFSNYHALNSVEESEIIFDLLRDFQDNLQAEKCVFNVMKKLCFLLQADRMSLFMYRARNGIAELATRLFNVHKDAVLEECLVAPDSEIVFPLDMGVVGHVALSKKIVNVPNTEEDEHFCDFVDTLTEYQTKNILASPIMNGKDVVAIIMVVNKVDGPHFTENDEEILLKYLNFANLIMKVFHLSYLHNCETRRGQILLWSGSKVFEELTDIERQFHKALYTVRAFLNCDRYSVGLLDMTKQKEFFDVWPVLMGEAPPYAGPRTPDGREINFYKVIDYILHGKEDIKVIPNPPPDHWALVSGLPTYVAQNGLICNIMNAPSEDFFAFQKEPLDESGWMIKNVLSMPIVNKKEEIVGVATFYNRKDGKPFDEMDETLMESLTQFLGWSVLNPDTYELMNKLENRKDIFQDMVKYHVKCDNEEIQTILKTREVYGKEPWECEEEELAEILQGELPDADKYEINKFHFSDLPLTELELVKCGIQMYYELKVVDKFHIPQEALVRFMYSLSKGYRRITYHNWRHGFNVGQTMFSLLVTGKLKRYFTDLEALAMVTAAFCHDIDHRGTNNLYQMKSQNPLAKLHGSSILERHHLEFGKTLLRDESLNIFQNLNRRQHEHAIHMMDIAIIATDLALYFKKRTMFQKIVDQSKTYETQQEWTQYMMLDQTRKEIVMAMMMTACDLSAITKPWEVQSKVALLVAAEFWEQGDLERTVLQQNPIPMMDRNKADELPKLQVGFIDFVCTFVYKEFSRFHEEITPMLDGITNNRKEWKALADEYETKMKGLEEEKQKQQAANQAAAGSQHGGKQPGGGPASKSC
T1 sequence (P23439 2-850 limits assumed): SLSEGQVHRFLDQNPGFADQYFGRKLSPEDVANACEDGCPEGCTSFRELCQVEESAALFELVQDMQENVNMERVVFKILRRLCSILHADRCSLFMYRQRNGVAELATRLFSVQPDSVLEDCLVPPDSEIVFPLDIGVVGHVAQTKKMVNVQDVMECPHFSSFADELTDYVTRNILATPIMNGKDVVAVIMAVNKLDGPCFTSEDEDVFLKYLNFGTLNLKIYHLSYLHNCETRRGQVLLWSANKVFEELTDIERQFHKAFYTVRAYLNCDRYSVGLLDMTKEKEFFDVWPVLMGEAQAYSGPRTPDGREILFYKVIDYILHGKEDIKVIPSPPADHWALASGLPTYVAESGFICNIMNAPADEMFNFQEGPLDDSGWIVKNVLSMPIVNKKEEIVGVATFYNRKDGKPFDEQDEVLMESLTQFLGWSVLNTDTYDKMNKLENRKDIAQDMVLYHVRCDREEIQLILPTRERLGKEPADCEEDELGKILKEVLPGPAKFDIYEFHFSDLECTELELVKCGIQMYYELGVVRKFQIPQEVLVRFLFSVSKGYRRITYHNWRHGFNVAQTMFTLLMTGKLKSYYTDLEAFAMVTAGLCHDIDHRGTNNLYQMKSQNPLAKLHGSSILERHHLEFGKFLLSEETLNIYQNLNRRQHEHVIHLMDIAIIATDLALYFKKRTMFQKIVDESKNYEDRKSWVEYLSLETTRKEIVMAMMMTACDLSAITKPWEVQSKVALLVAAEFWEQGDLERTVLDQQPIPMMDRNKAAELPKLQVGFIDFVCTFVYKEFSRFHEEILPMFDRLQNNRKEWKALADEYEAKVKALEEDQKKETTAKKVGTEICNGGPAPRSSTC
Assay: PDE6 enzyme inhibition (SPA, enzyme isolated from bovine retina)
Type: biochemical
Settings: FIGS. 14 and 15, test concentration not given
Method: The effects of compounds BL-230 and BL-236 on PDE6 human enzyme activity were quantified by measuring the production of 5′GMP from cGMP, using an enzyme isolated from Cerep bovine retina of and the detection method used was scintillation proximity assay (SPA).
The test compound, the reference compound or water (control) were added to a buffer containing 40 mM Tris-HCl (pH 7.8), 3 mM MgCl2, 1.4 mM DTT, 0.21% BSA, 200 mM NH4Cl, 2 uM cGMP and 0.05 μCi of [^3H] cGMP. Then the reaction was started by adding the enzyme (final amount depending on the efficiency of the isolation) and the mixture was incubated for 60 minutes at 22° C. For basal control measurements, the enzyme was omitted from the reaction mixture. Following this, the SPA incubation beads were added. After 20 minutes at 22° C. under agitation, the amount of [^3H] 5′GMP was quantified with a scintillation counter (Topcount, Packard). The results were expressed as an inhibition percentage of the control enzyme activity. The standard inhibitory reference compound zaprinast was used, which was tested in each experiment at several concentrations to obtain an inhibition curve from which its IC50 value was calculated. […]

SMILES: O=C1C2=C(c3c[nH]c4ccccc34)OC(c3ccc4c(c3)OCO4)N2C(=O)CN1CCO (centres unmarked) [BL-230, 3-(benzo[d][1,3]dioxol-5yl)-7-(2-hydroxyethyl)-1-(1H-indol-3-yl)-6,7-dihydro-3H-oxazolo[3,4-a]pyrazine-5,8-dione]
- inhibition of PDE6 enzyme activity: 85%

SMILES: C[C@@H](CO)N1CC(=O)N2C(=C(c3c[nH]c4ccccc34)OC2c2ccc3c(c2)OCO3)C1=O (stereo partly drawn) [BL-236, 3-(benzo[d][1,3]dioxol-5yl)-7-((S)1-hydroxypropan-2yl)-1-(1H-indol-3-yl)-6,7-dihydro-3H-oxazolo[3,4-a]pyrazine-5,8-dione]
- inhibition of PDE6 enzyme activity: 90%
